One molecule from patent publication US6924288B2, “Enantiomerically pure opioid diarylmethylpiperzine and methods of using same” (priority 2001, dated 2005) can be followed below.

Data set [1] deals with T1, μ opioid receptor (Rattus norvegicus, UniProt P33535).
T1 construct: tissue Pel-Freeze Biological Inc. (Rogers, Ark.); host or cells: rat whole brain membranes
Briefly: Radioligand binding, [3H]DAMGO competition, rat brain membranes. The method, then:
(§1) Two stereoisomerically related racemic mixtures and inclusive enantiomers were evaluated for in vitro opioid receptor affinity in rat brain membranes (μ and δ opioid) and guinea pig cerebellum (κ opioid receptor). Membranes for radioligand binding were prepared from either rat whole brain or guinea pig cerebellum, supplied by Pel-Freeze Biological Inc. (Rogers, Ark.). Tissues were homogenized in 50 mM TRIS (Tris[hydrooxymethyl]aminomethane) buffer (pH 7.4) containing 50 ug/ml soybean trypsin inhibitor, 1 mM EDTA (Ethylenediaminetetraacetic acid), and 100 μM PMSF (Phenylmethylsulfonyl fluoride). The homogenized brain tissues were centrifuged at 500×g for 30 minutes (4° C.) to remove large debris. The supernatant was polytronically sonicated for 10 seconds (P.E. setting of 2, 4° C.). Sucrose solution was then added to a final concentration of 0.35 M using a 10 mM TRIS-Sucrose buffer (pH 7.4) and the brain membranes were then centrifuged at 40,000×g for 30 minutes (4° C.). The membrane pellets were then washed twice in 10 mM TRIS buffer (pH 7.4) containing 50 μg/ml soybean trypsin inhibitor, 1 mM EDTA, and 100 μM PMSF.
(§2) Radioligand binding assays were performed in 10 mM TRIS buffer (pH 7.4) containing 50 μg/ml soybean trypsin inhibitor, 1 mM EDTA, 5 mM MgCl2, and 100 μM PMSF. Tritium-labeled DAMGO (μ), Deltorphin II (δ), or U69593 (κ) purchased from New England Nuclear were used as ligands in competitive experiments (2-3×10^−10 M final concentrations) with non-specific binding defined by 0.5×10^−6 M Naloxone (purchased from SIGMA Chemical Co.). All binding assays were run at room temperature for 90 minutes and then terminated by rapid filtration on GF/C glass fiber filters (Whatman, Hillsboro, Oreg.) with 50 mM TRIS buffer (4° C., pH 7.4) employing a Brandel Semi-automatic Cell Harvester (Model M48, Brandel, Gaithersburg, Md.). The filters were washed twice with 50 mM TRIS buffer (4° C., pH 7.4) and the filters were placed in liquid scintillation cocktail and the bound radioactivity counted on a Beckman LS 6500 scintillation counter. The potency of the compounds in inhibiting the binding of radiolabelled DAMGO (μ), Deltorphin II (δ), or U69593 (κ) was determined from full concentration-effect curves. With the computer program Prism (GraphPad Software Inc., San Diego, Calif.) the IC50 values were determined using a one-site nonlinear regression analysis of the radioligand binding data. The IC50 values were then converted to Ki values using the Cheng-Prusoff equation. (Cheng Y and Prusoff W H (1973) Relationship between the inhibition constant (K1) and the concentration of inhibitor which causes 50 percent inhibition (I50) of a enzymatic reaction. Biochem Pharm 22:3099-3108.)

The target in data set [2] is T2, δ opioid receptor (Rattus norvegicus, UniProt P33533).
T2 construct: tissue Pel-Freeze Biological Inc. (Rogers, Ark.); host or cells: rat whole brain membranes
Briefly: Radioligand binding, [3H]Deltorphin II competition, rat brain membranes. Particulars: read-out: Rat Brain Membrane K1 (nM) δ. The method, then: as §1, §2

In data set [3] the test system is beagle dogs. Put plainly: Emesis observation in beagle dogs, escalating i.v. doses. The class given is in vivo, dog. Particulars: i.v. slow bolus, 0.1, 0.3 and 0.5 mg/kg. The text has this: The following describes a procedure that provided observations on the emesis effects of (−)-3-((S)-((2S,5R)-4-allyl-2,5-dimethyl-1-piperazinyl)(3-thienyl)methyl)phenol (DPI-125). Three adult male beagle dogs were separately administered (−)-3-((S)-((2S,5R)-4-allyl-2,5-dimethyl-1-piperazinyl)(3-thienyl)methyl)phenol (DPI-125) in escalating dosages. Doses were chosen to produce blood levels consistent with strong to extreme analgesia and that would produce obvious pharmacological effects including lethargy and sedation. The compound was dissolved in sterile 5% dextrose solution that was buffered with acetic acid/sodium acetate buffer and administered intravenously in a slow bolus injection over 1-2 minutes. Firstly, the three dogs were administered test volume dosages of buffered 5% dextrose to ensure there was no reaction to the vehicle. Secondly, (−)3-((S)-((2S,5R)-4-allyl-2,5-dimethyl-1-piperazinyl)(3-thienyl)methyl)phenol (DPI-125) was administered in single injections at escalating dosages of 0.1, 0.3 and 0.5 mg/kg, with an intervening seven-day period before giving the next highest dose.

For data set [4], the system named is rats. Briefly: Tail pinch test for analgesia in rats. Format: in vivo. Particulars: rat; for Analgesia (delay of response to tail pinch): 0.30 mg/kg i.v., cutoff 20 sec. Here is the method:
Analgesia was assayed in rats using the tail pinch test with simultaneous monitoring of capillary blood gases (pCO2). During this testing period respiratory depression values were also obtained. Male rats (Wistar Hannover 200-300 g) were anesthetized with 2% isoflurane (J. A. Webster, Inc., Sterling, Mass. The femoral artery was cannulated with PE50 tubing for blood sampling. The external jugular vein was also cannulated with Silastic tubing for drug injection. After surgery, anesthetic gases were removed and the rat was allowed to rest in a plastic restrainer for 60 minutes to establish baseline values of blood gases.
The compounds 1-6 were administered intravenous. Nociceptive response and respiratory values were obtained for a 1-2 hour period. The femoral artery cannulation was used to draw arterial blood into a syringe pre-wetted with heparin. Samples were then analyzed with a blood gas analyzer (Ph/Gas Analyzer Synthesis 25 Model, Instrumentation Laboratory) to assess respiratory depression effects. The volume of blood taken each time was 0.15 cc. The syringes were capped immediately and the blood gases analyzed within 5 minutes. The blood exposed to air at the tip of the syringe was expelled. The blood was mixed by gentle inversion and an aliquots of 0.10 cc was injected into the blood gas analyzer.
An artery clamp was placed on the tail (one inch from the tip of the tail) for a short duration until an escape response occurred (i.e. tail-flick or vocalization). The escape response latency was recorded by means of a stopwatch. A cutoff time of 20 sec. was used to prevent unnecessary tissue damage. […] The elapsed time to elicit a pain response was recorded as the tail pinch latency in seconds. Blood gases were monitored at approximately the same time points as the tail pinch test.
The ED50 values for analgesia potency and respiratory depression were determined to calculate the safety or therapeutic ratio, which is defined as the respiratory depression ED50 divided by analgesia ED50.

Data set [5] deals with T3, κ opioid receptor (Cavia porcellus, UniProt P41144).
T3 construct: tissue Pel-Freeze Biological Inc. (Rogers, Ark.); host or cells: guinea pig cerebellum membranes
Put plainly: Radioligand binding, [3H]U69593 competition, guinea pig cerebellum membranes. Particulars: read-out: Guinea Pig Brain Membrane K1 (nM) κ. The method, then: as §1, §2

Data set [6] deals with T4, Mu receptor, mouse vas deferens (Mus musculus, UniProt P42866).
T4 construct: Mouse vasa deferentia (MVD), CD-1 strain, Harlan, Raleigh, N.C.) were removed from mice; tissue Harlan, Raleigh, N.C; (animals); host or cells: mouse vas deferens, CD-1 strain
Put plainly: Mouse vas deferens, inhibition of electrically induced contractions, mu (with TIPP and nor-BNI). The class given is cell-based. As to conditions: in presence of 3 μM TIPP and 15 nM nor-BNI; read-out: Mouse Vas Deferens ED50 (nM) μ.

Structures are written as SMILES.

In the case of `C=CCN1C[C@H](C)N([C@H](c2ccsc2)c2cccc(O)c2)C[C@H]1C` [Compound 2, (−)3-((S)-((2S,5R)-4-allyl-2,5-dimethyl-1-piperazinyl)(3-thienyl)methyl)phenol], in data set [1] (mu and delta receptor binding), the “K1 relative to the K1 of its enantiomer DPI-165” value was “approximately 1/1000”. The Ki in data set [1] (rat brain membranes, [3H]DAMGO, read-out: Rat Brain Membrane K1 (nM) μ) is 0.4 nM; in data set [2] it was 0.88 nM; in data set [5], 1.77 nM. Also, the “Retching or vomiting (emesis)” value in data set [3] was “No retching or vomiting was observed”. In addition, the “Analgesia (delay of response to tail pinch)” value in data set [4] (4 min.) was 20 s; in data set [4] (8 min.), 20 s; in data set [4] (32 min.), 12.3 s. For the same molecule, the “Analgesic effect in words” value in data set [4] (i.v., tail pinch, FIGS. 1-6) is recorded as “safely maintains analgesia for an extended time”. In addition, the ED50 (usually the dose at which the effect has come halfway, by size or by number of responders) in data set [4] (intravenous, tail pinch, 20 sec cutoff) came to 0.046 mg/kg. Further, the EC50 in data set [6] is 38.8 nM.
